These results are taken from PubChem BioAssay (NCI).

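Where inhibition never reached the appropriate level, the endpoint shown equals the highest concentration tested. Otherwise, values were interpolated linearly from a five-concentration, 48-hour dose response in 96-well plates. GI50: concentration for 50% inhibition of growth. TGI: total growth inhibition.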

Test systems include COLO 205 colon; HCT-15 colon; HOP-62 NSCLC; HT29 colon; KM12 colon; NCI-H522 lung; SK-MEL-2 melanoma; SK-MEL-28 melanoma; U251 CNS; UO-31 renal.
Common to all, as to assay: DTP human tumour cell line panel, 48 h

For `Cc1cc2c(C(C)C)c(O)c(O)c(C=NCCO)c2c(O)c1-c1c(C)cc2c(C(C)C)c(O)c(O)c(C=NCCO)c2c1O`, the TGI (as a rule, the concentration giving total growth inhibition) in the assay with COLO 205 colon was 3.03 µM; in the assay with HCT-15 colon it was 2.9 µM; in the assay on HOP-62 NSCLC, 5.96 µM; in the assay on HT29 colon it was 4.99 µM; in the assay with KM12 colon, 2.4 µM; in the assay on NCI-H522 lung it was 4.78 µM. Besides, the TGI stood at 14.6 µM in the assay on SK-MEL-2 melanoma, 3.66 µM in the assay with SK-MEL-28 melanoma, 2.59 µM in the assay on U251 CNS and 11 µM in the assay with UO-31 renal.

Regarding `CCOc1ccc(/C(C=O)=C(\Cl)c2ccc(OC)c(OC)c2)cc1`, the TGI with COLO 205 colon, with HCT-15 colon, in the assay with HT29 colon, in the assay on NCI-H522 lung, in the assay with SK-MEL-2 melanoma and in the assay with SK-MEL-28 melanoma was greater than 100 µM throughout. The TGI with U251 CNS and with UO-31 renal was greater than 100 µM each time.

As to `CC(=O)O[C@H]1C=CC(=O)C(C)CC1C` (stereo partly specified), the TGI with COLO 205 colon, with HOP-62 NSCLC, in the assay on HT29 colon, in the assay on KM12 colon, in the assay on NCI-H522 lung and with SK-MEL-2 melanoma was greater than 100 µM in each case. In addition, the concentration for total growth inhibition (TGI) in the assay on SK-MEL-28 melanoma, in the assay on U251 CNS and in the assay on UO-31 renal was greater than 100 µM throughout.

For the compound `CC(=O)OCC1=C(C(=O)O)C(c2ccc3c(c2)OCO3)c2cc3c(cc2O1)OCO3` (stereo unspecified), the TGI with COLO 205 colon, in the assay with HCT-15 colon, with HOP-62 NSCLC, in the assay with HT29 colon, with SK-MEL-28 melanoma and in the assay on U251 CNS was greater than 100 µM throughout. The concentration for total growth inhibition (TGI) in the assay with UO-31 renal was greater than 100 µM.

As for `CCCC(N)C(=O)c1ccccc1` (stereo unspecified), the TGI in the assay on COLO 205 colon, in the assay with HCT-15 colon, in the assay with HOP-62 NSCLC, in the assay with HT29 colon, in the assay with KM12 colon and in the assay on NCI-H522 lung was greater than 100 µM in each case. The TGI with SK-MEL-2 melanoma, in the assay on SK-MEL-28 melanoma, in the assay on U251 CNS and with UO-31 renal was greater than 100 µM throughout.

As to `O=C(Nc1ccc(Sc2ccc(N=Nc3c(O)c(S(=O)(=O)O)cc4cc(S(=O)(=O)O)ccc34)cc2)cc1)c1ccc(N=Nc2c(O)ccc3c(S(=O)(=O)O)cc(S(=O)(=O)O)cc23)cc1`, the TGI in the assay with COLO 205 colon is 35 µM; in the assay on HCT-15 colon, greater than 100 µM; in the assay on HOP-62 NSCLC, greater than 100 µM; in the assay with HT29 colon, greater than 100 µM; with KM12 colon it was greater than 100 µM; in the assay with NCI-H522 lung, 40.2 µM. Besides, the concentration for total growth inhibition (TGI) in the assay on SK-MEL-2 melanoma, in the assay on SK-MEL-28 melanoma, in the assay with U251 CNS and with UO-31 renal was greater than 100 µM in each case.

With `COc1ccc(-c2nn(-c3cccc(NC(=O)Nc4ccccc4)c3)cc2-c2ccncc2)cc1Cl`, the GI50 – broadly, the concentration that inhibits growth by half – in the assay on COLO 205 colon was 2.56 µM; in the assay with HCT-15 colon, 1.96 µM; in the assay on HOP-62 NSCLC, 3.12 µM; in the assay on HT29 colon, 2.19 µM; in the assay with KM12 colon it was 2.25 µM; in the assay with NCI-H522 lung it was 2.5 µM. The GI50 was 3.14 µM with SK-MEL-2 melanoma, 2.62 µM in the assay on SK-MEL-28 melanoma, 1.99 µM in the assay with U251 CNS and 1.5 µM in the assay with UO-31 renal. In addition, the TGI with COLO 205 colon was found to be 6.69 µM; with HCT-15 colon, 4.98 µM; in the assay on HOP-62 NSCLC, 9.13 µM; in the assay with HT29 colon it was 4.78 µM; with KM12 colon, 4.89 µM; in the assay on NCI-H522 lung it was 7.22 µM. In addition, the total growth inhibition concentration (TGI) in the assay on SK-MEL-2 melanoma turned out to be 7.53 µM; with SK-MEL-28 melanoma, 7.16 µM; in the assay on U251 CNS, 4.91 µM; in the assay on UO-31 renal it was 4.02 µM.

In the case of `COc1c2c(cc3c1OCO3)C13C=CC(OC)CC1N(CC3)C2` (stereo unspecified), the TGI in the assay with COLO 205 colon, in the assay with HCT-15 colon, in the assay on HOP-62 NSCLC, with HT29 colon, in the assay with KM12 colon and with NCI-H522 lung was greater than 100 µM in each case. Moreover, the TGI in the assay with SK-MEL-2 melanoma, in the assay with SK-MEL-28 melanoma, in the assay with U251 CNS and in the assay on UO-31 renal was greater than 100 µM throughout.

With `Clc1ccc(CNc2nc(Cl)c3[nH]cnc3n2)cc1Cl`, the concentration for total growth inhibition (TGI) in the assay with COLO 205 colon was 51.8 µM; with HCT-15 colon, greater than 100 µM; in the assay with HOP-62 NSCLC, 89.2 µM; with HT29 colon, 83.4 µM; in the assay with KM12 colon, greater than 100 µM; in the assay on NCI-H522 lung, 34.4 µM. Also, the total growth inhibition concentration (TGI) is 77.9 µM in the assay with SK-MEL-2 melanoma, greater than 100 µM in the assay with U251 CNS and 60 µM with UO-31 renal.

Turning to `C=C1C(=O)O[C@@H]2[C@H]1CCC(C)=C1C=CC(=O)[C@]12C`, the TGI came to 24.2 µM with HT29 colon; 31.4 µM with KM12 colon; 6.96 µM with NCI-H522 lung; 79.4 µM with SK-MEL-2 melanoma; 23.4 µM in the assay on SK-MEL-28 melanoma; 54 µM in the assay on U251 CNS. The compound also registered a TGI with UO-31 renal of 28.7 µM.

Regarding `CCC(=O)NC(Nc1cccc(F)c1)(C(F)(F)F)C(F)(F)F`, the concentration for total growth inhibition (TGI) with COLO 205 colon, in the assay with HCT-15 colon, in the assay with HT29 colon, in the assay on KM12 colon, in the assay with NCI-H522 lung and with SK-MEL-2 melanoma was greater than 100 µM each time. The TGI in the assay on SK-MEL-28 melanoma, with U251 CNS and in the assay on UO-31 renal was greater than 100 µM in each case.

For `CC(=O)C=NCC(=O)O`, the total growth inhibition concentration (TGI) with COLO 205 colon, in the assay on HCT-15 colon, with HOP-62 NSCLC, in the assay on HT29 colon, with KM12 colon and in the assay with NCI-H522 lung was greater than 100 µM in each case. For the same compound, the TGI with SK-MEL-2 melanoma, in the assay with SK-MEL-28 melanoma and with U251 CNS was greater than 100 µM in each case.

As for `NC1(C(=O)O)CCc2ccc(N(CCCl)CCCl)cc2C1` (stereo unspecified), the TGI with COLO 205 colon is greater than 100 µM; in the assay with HCT-15 colon, greater than 100 µM; with HOP-62 NSCLC, 63.5 µM; in the assay with HT29 colon, greater than 100 µM; in the assay on KM12 colon, greater than 100 µM; with NCI-H522 lung, 74.3 µM. Besides, the TGI with SK-MEL-2 melanoma, with SK-MEL-28 melanoma, in the assay with U251 CNS and in the assay with UO-31 renal was greater than 100 µM in each case.

As for `c1ccc(N=c2nc(N3CCOCC3)ss2)cc1`, the total growth inhibition concentration (TGI) in the assay with HCT-15 colon is 29 µM; with HOP-62 NSCLC, greater than 100 µM; with HT29 colon, 35.4 µM; with KM12 colon, 32.5 µM; in the assay on NCI-H522 lung it was 25.3 µM; in the assay on SK-MEL-2 melanoma, 43.4 µM. The results for the concentration for total growth inhibition (TGI) in the assay on SK-MEL-28 melanoma, in the assay on U251 CNS and in the assay with UO-31 renal were 32.1 µM, 28.6 µM and 50.2 µM, respectively.

`Fc1ccc(-c2nn3c(-c4cc(C(F)(F)F)cc(C(F)(F)F)c4)nnc3s2)cc1`: the GI50 is greater than 50 µM in the assay with COLO 205 colon; greater than 50 µM with HCT-15 colon; 1.2 µM in the assay with HOP-62 NSCLC; greater than 50 µM with HT29 colon; greater than 50 µM in the assay with KM12 colon; 2.3 µM in the assay with NCI-H522 lung. Also, the GI50 in the assay on SK-MEL-2 melanoma is 1.64 µM; in the assay with UO-31 renal it was 1.32 µM. The TGI in the assay with COLO 205 colon is greater than 50 µM; in the assay on HCT-15 colon it was greater than 50 µM; with HOP-62 NSCLC it was 3.35 µM; in the assay on HT29 colon, greater than 50 µM; with KM12 colon it was greater than 50 µM; with NCI-H522 lung, greater than 50 µM. Further, the TGI in the assay on SK-MEL-2 melanoma is 4.75 µM; with UO-31 renal it was greater than 50 µM.

As for `N#CC(Nc1cccc(C(F)(F)F)c1)c1ccccc1C(F)(F)F` (stereo unspecified), the total growth inhibition concentration (TGI) stood at 10.6 µM in the assay with COLO 205 colon; 17.8 µM in the assay on HCT-15 colon; 10.8 µM in the assay with HOP-62 NSCLC; 28 µM in the assay on HT29 colon; 19.9 µM in the assay on KM12 colon; 17.1 µM in the assay with NCI-H522 lung. Further, the TGI with SK-MEL-2 melanoma came to 17.9 µM; in the assay with SK-MEL-28 melanoma, 31.8 µM; in the assay with U251 CNS, 30.5 µM; in the assay on UO-31 renal, 31.9 µM.

With `O=C(Nc1c(C(=O)NC2CCCCC2)[nH]c(=O)[nH]c1=O)c1ccc(Cl)cc1`, the TGI in the assay with COLO 205 colon, with HCT-15 colon, in the assay with HOP-62 NSCLC, with HT29 colon, in the assay with KM12 colon and with NCI-H522 lung was greater than 100 µM in each case. Further, the TGI in the assay with SK-MEL-28 melanoma and in the assay with UO-31 renal was greater than 100 µM throughout.
